What follows are compounds tested against human Nav1.8 (Homo sapiens (Human), UniProt Q9Y5Y9) (assay: Nav1.8 Qube automated patch-clamp assay). Conditions: Nav1.8 Qube Assay; human Nav1.8 channels stably expressed in HEK 293 cells.
Assay type: cell-based
Description: Qube® Assay Experimental Procedure
Compounds were tested on human Nav1.8 and Nav1.5 channels stably expressed in human embryo kidney (HEK) 293 cells. Sodium current measurements on Qube® were conducted as follows: automated 384-well patch-clamp assays on the Qube® platform (Sophion Biosciences) were used to measure the inhibition of sodium flow through human Nav1.8 and Nav1.5 channels. Whole-cell voltage-clamp recordings were performed in QChips® (Sophion Biosciences) at room temperature. Nav1.8 current measurements on Qube® were obtained as follows: Nav1.8 currents were elicited with a 10 second 1 Hertz (Hz) pulse train from a holding potential of −90 millivolts (mV), delivered to the cells once per minute in the control condition (DMSO only) and after compound addition. The 1 hertz pulse train stimulation consisted of ten test pulses to 10 millivolt (mV) for 20 milliseconds (ms), each of which was followed by a 980 millisecond repolarization to −67 millivolts. At the end of the 10 second pulse train stimulation, a 5 second hyperpolarization step to −100 millivolt (mV) was used to recover Nav1.8 from fast inactivation. The peak currents elicited by the 1st and 10th test pulses were used to determine IC50 values for resting inhibition and inactivated state inhibition. Nav1.5 current measurements on Qube® were obtained as follows: Nav1.5 currents were elicited with a 20 second 3 Hertz pulse train in the control condition (DMSO only) and after compound addition. The pulse train consisted of sixty 20 millisecond test pulses to 0 millivolt from a holding potential of −80 millivolt (mV). The average peak currents elicited by the last 3 test pulses were used to determine IC50 values for Nav1.5 inhibition.
The following buffers were used for the Qube® recordings: External buffer for Nav1.8 Qube® recording: 150 NaCl, 2 CaCl2, 5 KCl, 1 Mg Cl2, 10 HEPES, 12 Dextrose; External buffer for Qube® Nav1.5 recording: 120 N-Methyl-D-Glucamine, 40 NaCl, 1 KCl, 2.7 CaCl2, 5 HEPES, 0.5 MgCl2; and Internal buffer for Qube® recording: 120 CsF, 30 CsCl, 10 EGTA, 5 HEPES, 5 NaF, 2 MgCl2.
For all Qube® experiments offline analysis was used to determine percent inhibition as a function of drug concentration. IC50 values were determined by fitting to the Hill equation.

Chain of human Nav1.8 (Q9Y5Y9 whole entry): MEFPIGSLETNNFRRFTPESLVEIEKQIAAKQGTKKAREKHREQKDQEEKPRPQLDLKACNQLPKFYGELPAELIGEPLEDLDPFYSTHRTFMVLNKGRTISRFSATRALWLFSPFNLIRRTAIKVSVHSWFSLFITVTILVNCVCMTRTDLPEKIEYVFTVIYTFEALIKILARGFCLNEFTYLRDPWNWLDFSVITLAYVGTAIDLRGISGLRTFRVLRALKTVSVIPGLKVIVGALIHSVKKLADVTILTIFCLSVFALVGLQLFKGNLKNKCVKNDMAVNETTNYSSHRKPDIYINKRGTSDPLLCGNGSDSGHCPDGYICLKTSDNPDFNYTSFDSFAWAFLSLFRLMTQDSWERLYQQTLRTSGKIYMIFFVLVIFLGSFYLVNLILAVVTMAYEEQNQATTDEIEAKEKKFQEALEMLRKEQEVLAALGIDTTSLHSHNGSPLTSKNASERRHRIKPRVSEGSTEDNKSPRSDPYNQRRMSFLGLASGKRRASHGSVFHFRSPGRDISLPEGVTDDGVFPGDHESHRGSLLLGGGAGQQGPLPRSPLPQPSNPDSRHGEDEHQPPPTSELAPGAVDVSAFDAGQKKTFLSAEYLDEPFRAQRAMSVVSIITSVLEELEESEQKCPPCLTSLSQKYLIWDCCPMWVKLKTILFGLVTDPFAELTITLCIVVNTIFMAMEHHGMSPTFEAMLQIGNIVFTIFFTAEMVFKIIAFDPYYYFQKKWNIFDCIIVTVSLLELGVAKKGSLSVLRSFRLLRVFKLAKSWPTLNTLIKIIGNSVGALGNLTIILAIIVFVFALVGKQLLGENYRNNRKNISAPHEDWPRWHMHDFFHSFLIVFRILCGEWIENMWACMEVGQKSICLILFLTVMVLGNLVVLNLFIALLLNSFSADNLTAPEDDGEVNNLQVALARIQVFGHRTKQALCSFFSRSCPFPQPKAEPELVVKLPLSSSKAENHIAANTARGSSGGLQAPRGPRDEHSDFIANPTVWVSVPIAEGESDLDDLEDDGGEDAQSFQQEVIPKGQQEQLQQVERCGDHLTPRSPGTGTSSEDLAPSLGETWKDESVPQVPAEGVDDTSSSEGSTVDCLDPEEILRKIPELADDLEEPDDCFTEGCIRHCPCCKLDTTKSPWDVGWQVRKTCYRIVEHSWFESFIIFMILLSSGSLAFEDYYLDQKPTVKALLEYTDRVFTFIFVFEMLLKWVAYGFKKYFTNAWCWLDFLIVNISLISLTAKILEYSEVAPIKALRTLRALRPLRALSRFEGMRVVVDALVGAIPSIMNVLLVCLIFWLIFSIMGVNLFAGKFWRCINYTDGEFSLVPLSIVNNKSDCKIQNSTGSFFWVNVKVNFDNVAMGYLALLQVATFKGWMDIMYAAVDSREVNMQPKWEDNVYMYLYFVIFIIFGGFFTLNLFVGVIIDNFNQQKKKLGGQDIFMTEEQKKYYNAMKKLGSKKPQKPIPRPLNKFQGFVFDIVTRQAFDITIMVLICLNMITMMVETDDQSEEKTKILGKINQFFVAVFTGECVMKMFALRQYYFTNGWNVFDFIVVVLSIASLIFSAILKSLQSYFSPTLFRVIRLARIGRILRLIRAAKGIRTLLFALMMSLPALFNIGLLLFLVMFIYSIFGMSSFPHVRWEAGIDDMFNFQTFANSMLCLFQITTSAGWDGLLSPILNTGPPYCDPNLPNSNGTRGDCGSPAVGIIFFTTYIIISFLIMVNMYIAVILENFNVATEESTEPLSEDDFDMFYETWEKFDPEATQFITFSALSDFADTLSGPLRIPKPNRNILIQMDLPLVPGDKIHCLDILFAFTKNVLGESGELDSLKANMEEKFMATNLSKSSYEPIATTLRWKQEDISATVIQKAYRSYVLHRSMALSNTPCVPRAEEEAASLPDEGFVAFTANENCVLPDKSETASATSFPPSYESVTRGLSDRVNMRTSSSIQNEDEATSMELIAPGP

SMILES | IC50 [nM]
Cc1nc(N2CCCCCC2)c(C(=O)Nc2cccc(C(N)=O)c2)cc1C#N [Example 178, 2-(azepan-1-yl)-N-(3-carbamoylphenyl)-5-cyano-6-methyl-pyridine-3-carboxamide] | 54
NC(=O)c1cccc(NC(=O)c2cc(C(F)(F)F)cnc2N2CCC3(CC3)C(F)(F)C2)c1 [Example 109, N-(3-carbamoylphenyl)-2-(8,8-difluoro-6-aza-spiro[2.5]octan-6-yl)-5-(trifluoro-methyl)-pyridine-3-carboxamide] | 860
CS(=O)(=O)c1cccc(NC(=O)c2cc(C(F)(F)C(F)(F)F)cnc2N2CCCCCC2)c1 [Example 166, 2-(azepan-1-yl)-N-(3-methylsulfonylphenyl)-5-(1,1,2,2,2-penta-fluoroethyl)pyridine-3-carboxamide] | 30
COc1nc(N2CCCCCC2)c(C(=O)Nc2cccc(S(N)(=O)=O)c2)cc1Br [Example 156, 2-(azepan-1-yl)-5-bromo-6-methoxy-N-(3-sulfamoylphenyl)nicotinamide] | 19
CS(=O)(=O)c1cccc(NC(=O)c2ccc(Cl)nc2N2CCCC(F)(F)CC2)c1 [Example 9, 6-chloro-2-(4,4-difluoroazepan-1-yl)-N-(3-methylsulfonyl-phenyl)pyridine-3-carboxamide] | 7
Cc1ccc(-c2cnc(N3CCCCC3)c(C(=O)Nc3cccc(S(N)(=O)=O)c3)c2)cc1 [Example 27, 2-(piperidin-1-yl)-N-(3-sulfamoylphenyl)-5-(p-tolyl)nicotinamide] | 4430
Cc1nc(N2CCCCCC2)c(C(=O)Nc2cccc(S(N)(=O)=O)c2)cc1C#N [Example 157, 2-(azepan-1-yl)-5-cyano-6-methyl-N-(3-sulfamoylphenyl)-pyridine-3-carboxamide] | 10
NS(=O)(=O)c1cccc(NC(=O)c2cc(C(F)(F)F)cnc2N2CCc3scnc3C2)c1 [Example 55, 2-(6,7-dihydro-4H-thiazol[4,5-c]pyridin-5-yl)-N-(3-sulfamoyl-phenyl)-5-(trifluoro-methyl)pyridine-3-carboxamide] | 405
CC(C)CS(=O)(=O)c1cccc(NC(=O)c2cc(C(F)(F)F)cnc2N2CCCCCC2)c1 [Example 119, 2-(azepan-1-yl)-N-(3-isobutylsulfonylphenyl)-5-(trifluoromethyl)-pyridine-3-carboxamide] | 2400
NS(=O)(=O)c1cccc(NC(=O)c2cc(C(F)(F)F)cnc2N2CCCC3(C2)CC3(F)F)c1 (single isomer, unassigned) [Example 126, 2-[(3S or 3R)-2,2-difluoro-5-azaspiro[2.5]-octan-5-yl]-N-(3-sulfamoylphenyl)-5-(trifluoromethyl)-pyridine-3-carboxamide] | 14
NS(=O)(=O)c1cccc(NC(=O)c2cc(C(F)(F)F)cnc2N2CCCC3(C2)CC3(F)F)c1 (single isomer, unassigned) [Example 127, 2-[(3R or 3S)-2,2-difluoro-5-azaspiro[2.5]-octan-5-yl]-N-(3-sulfamoylphenyl)-5-(trifluoromethyl)-pyridine-3-carboxamide] | 110
Cc1nc(N2CCCCCC2)c(C(=O)Nc2cccc(S(N)(=O)=O)c2)cc1Cl [Example 26, 2-(azepan-1-yl)-5-chloro-6-methyl-N-(3-sulfamoylphenyl)nicotinanmide] | 2.1
NS(=O)(=O)c1cccc(NC(=O)c2cc(C(F)(F)F)nnc2N2CCCC(F)(F)CC2)c1 [Example 181, 3-(4,4-difluoroazepan-1-yl)-N-(3-sulfamoylphenyl)-6-(trifluoromethyl)pyridazine-4-carboxamide] | 70
Cc1cc(C(=O)Nc2cccc(S(N)(=O)=O)c2)c(N2CCCCCC2)nc1C [Example 30, 2-(azepan-1-yl)-5,6-dimethyl-N-(3-sulfamoylphenyl) pyridine-3-carboxamide] | 12
NS(=O)(=O)c1cccc(NC(=O)c2cc(C(F)(F)F)cnc2N2CC3CC2CC3(F)F)c1 (single isomer, unassigned) [Example 138, 2-[(1R,4R or 1S,4S)-5,5-difluoro-2-azabicyclo-[2.2.1]heptan-2-yl]-N-(3-sulfamoylphenyl)-5-(trifluoromethyl)-pyridine-3-carboxamide] | 881
CS(=O)(=O)c1cccc(NC(=O)c2ccc(C(F)(F)F)nc2N2CCCCCC2)c1 [Example 82, 2-(azepan-1-yl)-N-(3-(methylsulfonyl)phenyl)-6-(trifluoro-methyl)nicotinamide] | 60

SMILES | IC50 [nM]
NC(=O)c1cccc(NC(=O)c2cc(Br)cnc2N2CCCCCC2)c1 [Example 38, 2-(azepan-1-yl)-5-bromo-N-(3-carbamoyl-phenyl)pyridine-3-carboxamide] | 279
Cc1nc(N2CCCCCC2)c(C(=O)Nc2cccc(S(C)(=O)=O)c2)c(C)c1Cl [Example 7, 2-(azepan-1-yl)-5-chloro-4,6-dimethyl-N-(3-methylsulfonyl-phenyl)pyridine-3-carboxamide] | 3.5
NS(=O)(=O)c1cccc(NC(=O)c2cc(C(F)(F)F)cnc2N2CCCC2)c1 [Example 63, 2-pyrrolidin-1-yl-N-(3-sulfamoylphenyl)-5-(trifluoromethyl)pyridine-3-carboxamide] | 2000
CS(=O)(=O)c1cccc(NC(=O)c2cc(C(F)(F)F)cnc2N2CCC(c3ccccc3)CC2)c1 [Example 105, N-(3-methylsulfonylphenyl)-2-(4-phenyl-1-piperidyl)-5-(trifluoro-methyl)pyridine-3-carboxamide] | 8720
NS(=O)(=O)c1cccc(NC(=O)c2cc(C(F)(F)F)cnc2N2CCCO[C@H](C(F)(F)F)C2)c1 [Example 147, N-(3-sulfamoylphenyl)-5-(trifluoromethyl)-2-[(2S)-2-(trifluoro-methyl)-1,4-oxazepan-4-yl]pyridine-3-carboxamide] | 32
NS(=O)(=O)c1cc(NC(=O)c2cc(C(F)(F)F)cnc2N2CCCCC2)ccc1F [Example 115, N-(4-fluoro-3-sulfamoyl-phenyl)-2-(1-piperidyl)-5-(trifluoro-methyl)pyridine-3-carboxamide] | 567
COC1CCN(c2ncc(C(F)(F)F)cc2C(=O)Nc2cccc(S(N)(=O)=O)c2)CC1 [Example 66, 2-(4-methoxy-1-piperidyl)-N-(3-sulfamoylphenyl)-5-(trifluoromethyl) pyridine-3-carboxamide] | 2610
NS(=O)(=O)c1cccc(NC(=O)c2cc(C(F)(F)F)cnc2N2CCC(F)(F)CC2)c1F [Example 170, 2-(4,4-difluoropiperidin-1-yl)-N-(2-fluoro-3-sulfamoylphenyl)-5-(trifluoromethyl)nicotinamide] | 119
CS(=O)(=O)c1cccc(NC(=O)c2cc(C(F)(F)F)cnc2N2C[C@H]3CCCC[C@H]3C2)c1 [Example 97, 2-[(3aS,7aR)-1,3,3a,4,5,6,7,7a-octahydroisoindol-2-yl]-N-(3-methyl-sulfonylphenyl)-5-(trifluoromethyl) pyridine-3-carboxamide] | 49
NS(=O)(=O)c1cccc(NC(=O)c2cc(C(F)(F)F)cnc2N2CC3CC4CC(C3)CC2C4)c1 [Example 46, N-(3-sulfamoylphenyl)-2-(4-azatricyclo-[4.3.1.13,8]undecan-4-yl)-5-(trifluoromethyl)-nicotinamide] | 12
NS(=O)(=O)c1cccc(NC(=O)c2cc(C(F)(F)F)cnc2N2C3CCC2CC3)c1 [Example 139, 2-(7-azabicyclo[2.2.1]heptan-7-yl)-N-(3-sulfamoyl-phenyl)-5-(trifluoro-methyl)pyridine-3-carboxamide] | 3460
CC1CN(c2ncc(C(F)(F)F)cc2C(=O)Nc2ccc3c(c2)S(=O)(=O)NC3)CCC1(F)F (single isomer, unassigned) [Example 112, 2-[(3R or 3S)-4,4-difluoro-3-methyl-1-piperidyl]-N-(1,1-dioxo-2,3-dihydro-1,2-benzothiazol-6-yl)-5-(trifluoromethyl) pyridine-3-carboxamide] | 72
O=C(Nc1cccc(S(=O)(=O)C2CCCC2)c1)c1cc(C(F)(F)F)cnc1N1CCCCCC1 [Example 120, 2-(azepan-1-yl)-N-(3-cyclopentylsulfonylphenyl)-5-(trifluoro-methyl)-pyridine-3-carboxamide] | 3020
C[Si](C)(C)c1cnc(N2CCCCCC2)c(C(=O)Nc2cccc(S(N)(=O)=O)c2)c1 [Example 86, 2-(azepan-1-yl)-N-(3-sulfamoylphenyl)-5-(trimethylsilyl)nicotinamide] | 77
Cc1nc(N2CCC(F)(F)CC2)c(C(=O)Nc2cccc(C(N)=O)c2)c(C)c1Cl [Example 16, N-(3-carbamoyl-phenyl)-5-chloro-2-(4,4-difluoro-1-piperidyl)-4,6-dimethyl-pyridine-3-carboxamide] | 24

From patent US12344595B2, “2-amino-n-phenyl-nicotinamides as NAV1.8 inhibitors” (Merck Sharp & Dohme LLC, priority 2018, dated 2025)
